Test results reported in ChEMBL document CHEMBL1201862, “PubChem BioAssay data set” (2004).
Activity calls are given as the source filed them.

How the values were obtained:
[1] = test system: Streptococcus sp. 'group A'; test: growth inhibition of control SK(-) GAS strain, dose response, counter-screen for streptokinase expression inhibitor project, luminescence, kanamycin, BacTiterGlo, confirmation (AID 1900); format: functional, organism-based; conditions: Streptococcus sp. 'group A'
[2] = test system: BJ; test: cytotoxicity toward BJ-TERT fibroblasts, dose response, cell-based, RAS-independent, luminescence (AID 1933); format: functional; conditions: Homo sapiens
[3] = biological target: T1, Streptokinase A (Streptococcus pyogenes serotype M1, UniProt P10520); test: S. pyogenes streptokinase expression inhibitors, potency, dose response, plasminogen activation absorbance, OD405 (AID 1914); format: functional, Streptococcus pyogenes M1 GAS;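 note: secreted streptokinase activity via plasminogen activation per viability signal from cell pellet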
T1 sequence (P10520 whole entry): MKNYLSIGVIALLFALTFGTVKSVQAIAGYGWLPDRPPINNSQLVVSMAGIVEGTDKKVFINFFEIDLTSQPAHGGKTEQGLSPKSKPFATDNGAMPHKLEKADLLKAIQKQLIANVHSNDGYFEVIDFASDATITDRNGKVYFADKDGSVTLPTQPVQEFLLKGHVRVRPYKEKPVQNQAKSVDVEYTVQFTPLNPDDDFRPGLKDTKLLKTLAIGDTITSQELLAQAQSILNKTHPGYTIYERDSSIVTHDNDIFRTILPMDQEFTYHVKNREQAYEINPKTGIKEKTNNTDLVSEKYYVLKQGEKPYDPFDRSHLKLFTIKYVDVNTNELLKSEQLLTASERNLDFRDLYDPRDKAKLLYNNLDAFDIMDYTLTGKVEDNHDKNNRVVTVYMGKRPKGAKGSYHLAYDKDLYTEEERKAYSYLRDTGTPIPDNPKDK

[4] = test system: BJ; test: cells; format: functional, cell-based; conditions: Homo sapiens
[5] = test system: BJ; test: cytotoxicity toward BJ-TERT-LT-ST fibroblasts, dose response, cell-based, RAS-independent, luminescence (AID 1935); format: functional; conditions: Homo sapiens;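 note: BJ fibroblasts immortalized with TERT plus LT and ST oncogenes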
[6] = cytotoxicity toward DRD oncogenic fibroblasts, dose response, cell-based, non-viral oncogenic, luminescence (AID 1934); format: functional; conditions: Homo sapiens
[7] = test system: Streptococcus; test: Group A Streptococcus viability loss, dose response, counter-screen for streptokinase expression inhibitor project, luminescence, BacTiterGlo (AID 1915); format: functional, organism-based; conditions: Streptococcus;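 note: potency for reduction of bacterial viability or growth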
[8] = biological target: T2, Small ubiquitin-related modifier 1 (Homo sapiens, UniProt P63165); test: inhibitors of SUMO1 peptide binding, dose response, biochemical, fluorescence polarization, uHTS hits (AID 624382); format: functional; conditions: read-out: IC50_Mean
[9] = biological target: T2, Small ubiquitin-related modifier 1; test: inhibitors of SUMO1 partner interactions, dose response, biochemical, FRET (AID 624383); format: functional; conditions: read-out: IC50_Mean
[10] = biological target: T3, Rac GTPase-activating protein 1 (Homo sapiens, UniProt Q9H0H5); test: MgcRacGAP GTPase-activating activity inhibitors, confirmation, biochemical, ADP Hunter fluorescence, primary and confirmatory (AID 624330); format: functional
T3 sequence (Q9H0H5 whole entry): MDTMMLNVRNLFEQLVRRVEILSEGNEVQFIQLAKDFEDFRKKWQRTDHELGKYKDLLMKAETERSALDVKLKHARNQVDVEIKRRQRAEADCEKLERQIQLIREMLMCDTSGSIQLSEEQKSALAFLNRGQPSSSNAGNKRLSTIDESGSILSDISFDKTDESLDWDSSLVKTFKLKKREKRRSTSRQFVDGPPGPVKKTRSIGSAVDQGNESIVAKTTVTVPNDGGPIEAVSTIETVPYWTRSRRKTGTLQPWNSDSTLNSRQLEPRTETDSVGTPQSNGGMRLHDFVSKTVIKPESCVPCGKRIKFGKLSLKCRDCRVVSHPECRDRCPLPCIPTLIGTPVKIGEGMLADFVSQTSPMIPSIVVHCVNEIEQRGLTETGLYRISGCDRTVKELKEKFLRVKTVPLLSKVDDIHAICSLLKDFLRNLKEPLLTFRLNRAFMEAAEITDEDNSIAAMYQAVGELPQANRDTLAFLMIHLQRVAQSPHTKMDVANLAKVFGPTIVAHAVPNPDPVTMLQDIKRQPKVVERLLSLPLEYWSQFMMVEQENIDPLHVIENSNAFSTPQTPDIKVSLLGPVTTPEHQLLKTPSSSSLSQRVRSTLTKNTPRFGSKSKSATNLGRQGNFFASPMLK

[11] = biological target: T4, DNA repair protein RAD52 homolog (Homo sapiens, UniProt P43351); format: functional, biochemical
T4 sequence (P43351 whole entry): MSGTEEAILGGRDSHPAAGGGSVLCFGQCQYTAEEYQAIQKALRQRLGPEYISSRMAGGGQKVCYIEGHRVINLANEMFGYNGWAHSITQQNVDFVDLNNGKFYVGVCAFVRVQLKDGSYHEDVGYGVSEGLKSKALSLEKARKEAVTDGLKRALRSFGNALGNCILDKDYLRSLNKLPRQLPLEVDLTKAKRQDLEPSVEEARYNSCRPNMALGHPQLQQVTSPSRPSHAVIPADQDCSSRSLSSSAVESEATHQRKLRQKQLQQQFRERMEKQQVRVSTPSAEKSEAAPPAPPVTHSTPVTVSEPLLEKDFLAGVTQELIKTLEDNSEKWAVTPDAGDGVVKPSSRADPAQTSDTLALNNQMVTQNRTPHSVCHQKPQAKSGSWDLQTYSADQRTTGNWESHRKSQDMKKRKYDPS

[12] = test system: Escherichia coli; test: microbe, parasite or virus in culture
[13] = test system: HeLa; test: HeLa cell cytotoxicity, dose response, cytotoxicity control for MITF activator project, CellTiter-Glo luminescence, cherry-pick samples (AID 540259); format: functional, cell-based; conditions: Homo sapiens
[14] = biological target: Dual specificity protein kinase CLK1 (Homo sapiens, UniProt P49759); test: CLK1 kinase inhibitors, off-target check, dose response, selectivity assay for Dyrk1A inhibitor project, biochemical, cherry-picked samples (AID 588811)
[15] = biological target: Dual specificity tyrosine-phosphorylation-regulated kinase 1A (Rattus norvegicus, UniProt Q63470); format: biochemical, Homo sapiens
[16] = biological target: Luciferin 4-monooxygenase (Photinus pyralis, UniProt P08659); test: firefly luciferase enzyme inhibitors, dose response, biochemical, luminescence (AID 1891)
[17] = Luminescence Cell-Based Dose Confirmation HTS to Identify Inhibitors of Platelet Dense Granule Release. [Related pubchem assays: 1663 (Primary HTS), 1678 (Summary of Project)]; format: functional
[18] = biological target: Beta-2 adrenergic receptor (Homo sapiens, UniProt P07550); test: beta2AR agonists driving receptor internalization, dose response, cell-based, FAP fluorogen, flow cytometry, cherry pick 1 (AID 588763); format: functional
[19] = test system: Escherichia coli; test: microbe, parasite or virus in culture; remark: listed apart in the source
[20] = biological target: T5, Microphthalmia-associated transcription factor (Homo sapiens, UniProt O75030); test: TRPM1 promoter luciferase signal decrease, dose response, MITF inhibitor project, cell-based, SK-MEL-5, cherry-picked, set 3 (AID 493073); format: functional
T5 sequence (O75030 whole entry): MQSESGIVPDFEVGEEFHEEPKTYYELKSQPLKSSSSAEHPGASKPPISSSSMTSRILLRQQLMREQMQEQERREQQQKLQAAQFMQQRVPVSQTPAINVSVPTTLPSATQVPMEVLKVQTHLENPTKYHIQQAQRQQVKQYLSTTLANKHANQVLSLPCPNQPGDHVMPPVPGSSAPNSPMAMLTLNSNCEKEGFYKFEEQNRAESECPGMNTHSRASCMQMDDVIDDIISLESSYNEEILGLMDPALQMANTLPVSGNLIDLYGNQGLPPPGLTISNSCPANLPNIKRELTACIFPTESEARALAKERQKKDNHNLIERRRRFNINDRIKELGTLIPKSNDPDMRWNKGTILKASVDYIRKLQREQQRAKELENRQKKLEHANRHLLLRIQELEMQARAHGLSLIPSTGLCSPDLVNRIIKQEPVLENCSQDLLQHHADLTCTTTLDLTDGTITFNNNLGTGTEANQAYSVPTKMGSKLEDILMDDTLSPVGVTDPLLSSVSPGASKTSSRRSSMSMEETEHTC

[21] = test system: A-375; test: MITF: Counter assay: A375 proliferation Measured in Cell-Based System Using Plate Reader - 2084-03_Inhibitor_Dose_DryPowder_Activity. [Related pubchem assays (depositor defined):AID488944]; format: functional; conditions: Homo sapiens
[22] = test system: A-375; test: A375 melanoma cell viability reduction, dose response, counter-screen for MITF modulator project, cherry-pick samples, set 2 (AID 540335); format: functional, cell-based; conditions: Homo sapiens
[23] = biological target: T6, CAAX prenyl protease 2 (Homo sapiens, UniProt Q9Y256); test: human Rce1 protease inhibitors, dose response, biochemical, yeast membranes, quenched-peptide fluorescence, cherry-pick (AID 588849)
T6 sequence (Q9Y256 whole entry): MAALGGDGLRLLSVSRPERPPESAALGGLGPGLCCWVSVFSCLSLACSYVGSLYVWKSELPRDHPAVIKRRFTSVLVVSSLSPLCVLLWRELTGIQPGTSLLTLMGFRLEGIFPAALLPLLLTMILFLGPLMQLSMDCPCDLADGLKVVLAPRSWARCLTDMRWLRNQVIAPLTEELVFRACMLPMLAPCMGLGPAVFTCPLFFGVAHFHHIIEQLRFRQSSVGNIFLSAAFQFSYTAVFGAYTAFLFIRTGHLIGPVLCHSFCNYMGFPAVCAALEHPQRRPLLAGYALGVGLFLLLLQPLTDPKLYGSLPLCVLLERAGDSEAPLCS

[24] = growth suppression of PTEN-null colon cells, dose response, cell-based, HCT116 PTEN knockout (AID 1047); format: functional;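 note: HCT116 colon tumor cells with PTEN knocked out; cells exposed to compound for 60 hours before readout; potency for loss of cell viability measured by luminescence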
[25] = growth suppression of beta-catenin-knockout colon cells, dose response, cell-based, HCT116, human colon tumor (AID 1045); format: functional;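 note: HCT116 colon tumor cells with beta catenin knocked out; cells exposed to compound for 60 hours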
[26] = biological target: Cytochrome P450 2D6 (Homo sapiens, UniProt P10635);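 note: CYP2D6 member of a cytochrome P450 panel assay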
[27] = inhibitors of intracellular T. cruzi replication, confirmation, NIH3T3 host cells, beta-gal luminescence (AID 2044); format: functional, cell-based;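 note: intracellular parasites grown in NIH/3T3 mouse fibroblasts as host cells; luminescent beta-galactosidase reporter signal from transgenic T. cruzi replicating inside host cells; inhibitors lower the luminescence signal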
[28] = cytotoxicity toward NIH3T3 fibroblasts, dose response, counter-screen, cell-based, ATP luminescence, mouse fibroblasts (AID 2010); format: functional;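 note: cells exposed to compound for about 90 hours before reading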
[29] = biological target: T7, CAAX prenyl protease 2 (Saccharomyces cerevisiae S288c, UniProt Q03530); format: biochemical
T7 sequence (Q03530 whole entry): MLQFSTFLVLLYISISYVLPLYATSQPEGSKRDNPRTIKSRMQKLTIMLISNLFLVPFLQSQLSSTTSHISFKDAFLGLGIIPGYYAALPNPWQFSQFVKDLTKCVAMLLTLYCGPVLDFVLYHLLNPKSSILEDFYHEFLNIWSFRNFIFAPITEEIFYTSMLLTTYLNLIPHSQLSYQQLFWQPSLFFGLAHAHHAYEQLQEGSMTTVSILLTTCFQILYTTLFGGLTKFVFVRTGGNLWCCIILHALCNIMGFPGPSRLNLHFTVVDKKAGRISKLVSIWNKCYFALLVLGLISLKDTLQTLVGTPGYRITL

Beta-2 adrenergic receptor, sequence (P07550 whole entry): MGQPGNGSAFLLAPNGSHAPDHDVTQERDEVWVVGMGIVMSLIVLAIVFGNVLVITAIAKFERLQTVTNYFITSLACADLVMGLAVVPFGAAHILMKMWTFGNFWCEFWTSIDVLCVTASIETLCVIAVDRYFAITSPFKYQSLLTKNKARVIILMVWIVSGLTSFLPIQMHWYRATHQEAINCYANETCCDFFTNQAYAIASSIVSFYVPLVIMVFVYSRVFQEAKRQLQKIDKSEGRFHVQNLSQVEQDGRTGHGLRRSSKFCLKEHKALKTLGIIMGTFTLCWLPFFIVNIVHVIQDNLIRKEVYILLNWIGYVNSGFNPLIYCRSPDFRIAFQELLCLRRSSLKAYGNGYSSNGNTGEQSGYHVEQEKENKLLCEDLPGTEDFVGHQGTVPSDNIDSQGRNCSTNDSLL
Dual specificity protein kinase CLK1, sequence (P49759 whole entry): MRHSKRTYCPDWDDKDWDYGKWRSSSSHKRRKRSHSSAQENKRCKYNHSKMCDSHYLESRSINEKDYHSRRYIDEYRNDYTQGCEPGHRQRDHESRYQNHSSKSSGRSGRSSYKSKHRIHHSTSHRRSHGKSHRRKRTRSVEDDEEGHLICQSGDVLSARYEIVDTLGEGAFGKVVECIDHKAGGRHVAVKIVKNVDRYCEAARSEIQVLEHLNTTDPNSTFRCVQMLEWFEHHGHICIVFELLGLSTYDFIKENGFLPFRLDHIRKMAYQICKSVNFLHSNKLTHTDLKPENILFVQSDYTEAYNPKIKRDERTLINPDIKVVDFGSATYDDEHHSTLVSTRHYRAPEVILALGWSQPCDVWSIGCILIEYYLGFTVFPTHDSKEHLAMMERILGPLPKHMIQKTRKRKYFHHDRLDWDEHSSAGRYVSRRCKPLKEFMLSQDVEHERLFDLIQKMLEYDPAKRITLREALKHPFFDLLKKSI
T2 sequence (P63165 whole entry): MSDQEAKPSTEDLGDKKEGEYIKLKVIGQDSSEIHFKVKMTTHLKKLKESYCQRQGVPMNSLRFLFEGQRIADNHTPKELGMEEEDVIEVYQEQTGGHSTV
Cytochrome P450 2D6, sequence (P10635 whole entry): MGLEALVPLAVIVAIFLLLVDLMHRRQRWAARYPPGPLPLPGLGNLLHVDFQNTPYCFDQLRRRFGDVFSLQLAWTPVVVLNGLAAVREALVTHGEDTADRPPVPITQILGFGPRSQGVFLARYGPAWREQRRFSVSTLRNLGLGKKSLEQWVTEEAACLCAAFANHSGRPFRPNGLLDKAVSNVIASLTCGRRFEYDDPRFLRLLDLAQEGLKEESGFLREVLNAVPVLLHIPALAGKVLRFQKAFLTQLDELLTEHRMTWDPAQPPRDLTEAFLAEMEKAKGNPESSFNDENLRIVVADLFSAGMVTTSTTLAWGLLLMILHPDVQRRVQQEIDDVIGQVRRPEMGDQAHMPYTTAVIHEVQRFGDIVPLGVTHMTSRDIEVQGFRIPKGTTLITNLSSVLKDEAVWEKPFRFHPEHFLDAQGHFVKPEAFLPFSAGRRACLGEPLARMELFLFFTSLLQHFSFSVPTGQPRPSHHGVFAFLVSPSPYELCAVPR
Luciferin 4-monooxygenase, sequence (P08659 whole entry): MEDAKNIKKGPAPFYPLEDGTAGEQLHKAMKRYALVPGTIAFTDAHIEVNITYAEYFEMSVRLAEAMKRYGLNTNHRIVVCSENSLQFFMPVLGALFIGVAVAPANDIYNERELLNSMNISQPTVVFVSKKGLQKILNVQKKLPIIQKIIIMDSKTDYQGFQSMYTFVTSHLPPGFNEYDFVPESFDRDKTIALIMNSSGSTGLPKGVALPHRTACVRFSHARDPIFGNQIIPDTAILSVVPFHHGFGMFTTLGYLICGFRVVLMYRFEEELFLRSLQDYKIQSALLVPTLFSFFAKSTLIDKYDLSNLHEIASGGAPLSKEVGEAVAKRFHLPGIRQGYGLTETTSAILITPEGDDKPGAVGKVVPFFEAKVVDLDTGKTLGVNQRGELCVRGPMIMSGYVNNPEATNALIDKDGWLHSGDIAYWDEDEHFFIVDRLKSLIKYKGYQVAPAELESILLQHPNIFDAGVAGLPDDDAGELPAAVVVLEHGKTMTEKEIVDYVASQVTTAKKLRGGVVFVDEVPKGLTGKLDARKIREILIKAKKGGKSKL

Cn1ccc(=Nc2ccc(NC(=O)c3ccc(/N=c4\ccn(C)c5ccc([N+](=O)[O-])cc45)cc3)cc2)cc1
EC50 [1]: 0.976 µM (active)
EC50 [2]: 15.3 µM (active)
EC50 [3]: 28 µM (inconclusive)
EC50 [4]: 18 µM (inconclusive)
EC50 [5]: > 150 µM (inconclusive)
EC50 [6]: 17.1 µM (active)
EC50 [7]: 2.47 µM (active)
IC50 [8]: > 66.6 µM (inactive)
IC50 [9]: 13.1 µM (active)
IC50 [10]: 35.5 µM (active)
AC50 [11]: 1.28 µM (active)
AC50 [12]: 12 µM (active)

c1ccc2oc(-c3ccc4[nH]cnc4c3)nc2c1
AC50 [13]: 69.6 µM (active)

O=C(Nc1nc(-c2ccc3c(c2)OCCO3)cs1)c1ccco1
EC50 [1]: 20.1 µM (active)
EC50 [3]: > 150 µM (not active)
EC50 [7]: > 150 µM (not active)
AC50 [14]: 3.98 µM (active)
AC50 [15]: 6.45 µM (active)

Cc1nc(CNc2ncnc3ccc(-c4ccoc4)cc23)cs1
AC50 [14]: 0.0311 µM (active)

COc1cc(OC)nc(NC(=O)CSc2nnc(-c3ccccc3)n2C2CCCCC2)n1
EC50 [16]: > 112 µM (not active)
EC50 [17]: > 112 µM (not active)
EC50 [18]: 1.05 µM (active)

N#Cc1ccc(NC(=O)c2cccs2)nc1
AC50 [13]: 248 µM (active)

O=C(c1cccc(Cl)c1)N1CCC(C(=O)N2CCN(Cc3ccccc3)CC2)CC1
EC50 [18]: 5.89 µM (active)

CCN1CCN(Cc2ccc(NC(=O)c3ccc(C)c(NC(=O)N4CCNC4=O)c3)cc2C(F)(F)F)CC1
AC50 [14]: 2.29 µM (active)
AC50 [15]: 8.71 µM (active)

CCc1ccc2c(c1)cc(CN(Cc1ccco1)C(C)=O)c1nnnn12
AC50 [19]: 24.6 µM (active)
AC50 [12]: 98.8 µM (active)

O=C(Cn1ncc(Cl)c(Cl)c1=O)NC1CCCCC1
AC50 [20]: 6.82 µM (active)
AC50 [21]: > 35 µM (active)
AC50 [22]: > 35 µM (active)

CSc1ccc(/C=C/C(=O)OCC(=O)NC(C)C)cc1
AC50 [23]: 35.8 µM (active)

O=C(N/N=C/c1cc([N+](=O)[O-])ccc1N1CCNCC1)c1ccc([N+](=O)[O-])cc1
EC50 [24]: 11.1 µM (active)
EC50 [25]: 12.1 µM (active)
AC50 [20]: 8.19 µM (active)
AC50 [21]: 24.1 µM (active)
AC50 [26]: 25.1 µM (inconclusive)

CC(C)C(c1nnnn1C1CCCC1)N1CCC(C(N)=O)CC1 (centres undefined)
AC50 [12]: 164 µM (active)

COc1ccc(N2C(=O)c3ccccc3NC23CCCCC3)cc1
AC50 [13]: 300 µM (active)

C=CCn1c(SCc2ccccc2Cl)nnc1-c1sc2nc(C)cc(C)c2c1N
EC50 [27]: 0.161 µM (active)
EC50 [28]: > 60 µM (not active)
EC50 [18]: 0.0757 µM (active)

CCOC(=O)c1c(NC(=O)c2cccc(N3C(=O)CCC3=O)c2)sc(C)c1C
AC50 [29]: > 100 µM (inactive)
AC50 [23]: 31.5 µM (active)
